Data reported in patent US20260130369A1, “MARINE ALGICIDES” (Mote Marine Laboratory, Inc., priority 2022, published 2026).

test system: K. brevis; assay: K. brevis mortality test of individual pure compounds against red tide cultures; format: cell-based, Karenia brevis; conditions: 100% mortality of K. brevis within 2 hours after administration to a water sample containing K. brevis
Procedure: Shown below in Table 1 are one saturated fatty acid (viz., palmitic acid) and nine exemplary algicidal unsaturated fatty acids, along with their omega nomenclature (viz., number of carbon atoms, number of double bonds, number of carbon atoms from the carboxylic acid end to the first carbon in a double bond) and the required dosage in ppm to obtain 100% mortality of K. brevis, within 2 hours after administration to a water sample containing K. brevis, according to embodiments of the present disclosure.
The relative toxic effects shown in Table 1 were determined by obtaining individual pure compounds and testing them against red tide cultures of K. brevis. The compounds in Table 1 may also be tested as salts or soaps, and in water or non-methanolic solvents such as ethanol, acetone, acetic acid, dimethyl sulfoxide (DMSO) or other polar or non-polar solvent. […] In embodiments, the observed mortality may for example be at least 25%, at least 50%, at least 75%, at least 90% or as much as 100% in a desired time frame (e.g., within 2 hours, within 4 hours, within 8 hours, within 24 hours, or within 2, 3 or 4 days following application of the algicidal compound. In some embodiments, 100% death of red tide organisms may be achieved within 30 minutes of application within a target area. Additionally, extracts of macro algae common in environments suitable for K. brevis were tested to see how the mixture of fatty acids in those extracts would perform as algicidal agents. Use of a single compound instead of a mixture may be preferable under many common circumstances. However, Ulva latuca and Gracilaria tikvahiae contain mixtures of fatty acids and may be used as salts or soaps or in non-methanolic solutions to control K. brevis red tide blooms, according to embodiments of the present disclosure.
To measure K. brevis mortality in a liquid, the concentration of K. brevis is measured before any algaecides are added. An algaecide is then added, and the concentration of live K. brevis measured at intervals (e.g. 1, 2, 5, 10, 20, and 30 minutes). This may also be performed in serial stages. For example, if the mortality rate of K. brevis at 30 minutes is 100%, the experiment may be repeated and the concentration of K. brevis measured at a lesser time point, such as after 20 minutes. If the mortality rate of K. brevis is still 100%, the experiment may be repeated again with the concentration measured at a lesser time point, such as after 10 minutes. The experiment may be repeated as many times as necessary to measure how long it takes for an algaecide to reach 100% mortality rate of K. brevis. Any suitable time periods may be used to measure the concentration of K. brevis.
A variety of techniques may be used to measure K. brevis concentrations. In some embodiments, staining techniques are used. Staining may be performed with Lugol's Iodine Solution stain, which will become fixed to and stain the K. brevis so that it may be visualized. Other stains may be used, such as Invitrogen™ SYTOX™ Green from Thermo Fisher Scientific, which will penetrate compromised membranes (a feature characteristic of dead cells) of K. brevis and stain them. Fluorescein Diacetate may also be used, where live cells convert the fluorescein diacetate to […] which fluoresces and may be measured. Additionally, 4′,6-diamidino-2-phenylindole (DAPI) may also be used to stain nucleic acids that are inside or outside of cells. In addition to staining methods, the concentration of K. brevis may also be measured by other imaging techniques such as manual count, microscopy, fluorometry, flow cytometry, or other possible staining or counting techniques. FIG. 3 depicts one method of measuring K. brevis concentration using Invitrogen™ SYTOX™ Green.

| Structure (SMILES) | Dosage (PPM) for 100% Mortality in under 2 hrs [PPM] |
| --- | --- |
| CCCCCCCCCCCCCCCC(=O)O [Palmitic Acid, reference compound] | >10 |
| CC/C=C\C/C=C\C/C=C\C/C=C\C/C=C\CCCC(=O)O [Eicosapentaenoic Acid] | <2 |
| CCCCCC/C=C\CCCCCCCC(=O)O [Palmitoleic Acid] | 3 |
| CC/C=C\C/C=C\C/C=C\C/C=C\C/C=C\C/C=C\CCC(=O)O [Docosahexanoic Acid] | <2.5 |
| CC/C=C\C/C=C\C/C=C\CCCCCCCC(=O)O [Alpha-linolenic Acid] | 3 |
| CC/C=C\C/C=C\C/C=C\C/C=C\CCCCC(=O)O [Stearidonic Acid] | >2 |
| CC/C=C\C/C=C\C/C=C\C/C=C\CCC(=O)O [Hexadecatetraenoic Acid] | >1 |
| CCCCC/C=C\C/C=C\C/C=C\C/C=C\CCCC(=O)O [Arachidonic Acid] | 1.5 |
| CCCCC/C=C\C/C=C\C/C=C\C/C=C\CCCCCC(=O)O [Adrenic Acid] | <50 |
| CCCCCC/C=C\CCCCCCCCCC(=O)O [Vacennic Acid] | >6 |

test system: K. brevis cells; assay: Large-scale mesocosm experiment, efficacy of algicide treatment (red tide cell counts); format: cell-based, Karenia brevis; conditions: 15 or 25 ppm particles; 1400 L tanks; 1 million cells/L; first (15 minute) sampling period
Procedure: A large-scale mesocosm experiment was conducted to evaluate the efficacy of algicide treatment and marine organism toxicity. In each of four 1400 L exposure tanks containing K. brevis cells at a red tide concentration of 1 million cells/L, potassium ricinoleate particles were added to the tanks at levels of 15 or 25 ppm. At 15 minutes after addition of the algicidal agent to each tank, water samples were collected for red tide cell counts.
Marine organism toxicity was evaluated by adding grass shrimp or Gulf killifish to the tanks along with the red tide cells and 15 or 25 ppm of the algicidal compounds. The red tide cells were quickly killed as before. After 18 and 24 hours, all shrimp remained alive. After 18 hours all fish were alive, but significant fish mortality was observed after 24 hours. The fish mortality was determined to be due to insufficient tank water circulation and oxygenation, and repeating the fish experiment with adequate circulation and oxygenation should eliminate or at least reduce the observed fish mortality.

| Structure (SMILES) | red tide cell mortality (no live cells under microscopic examination) |
| --- | --- |
| CCCCCC[C@@H](O)C/C=C\CCCCCCCC(=O)[O-].[K+] [potassium ricinoleate] | complete red tide cell mortality |
